What was measured:
[1] = tested on: bovine pericardium; test: Melting temperature measurement of fixed pericardium; conditions: treated 48 hours, n = 3; PA 0.5% in PBS, GA 0.625% in PBS; untreated control 70 ± 1.0; in °C
Description: (§1) The fixed tissues and fresh tissues were assayed for their melting temperature by heating tissue strips (1×2 cm^2, n=3). The melting temperature was recorded when tissues started to shrink.

[2] = tested on: bovine pericardium; test: In vitro enzymatic degradation by collagenase, H&E histology; conditions: 24 h digestion, 0.5% proanthocyanidin or 0.625% GA treated, fresh tissues disintegrated
Description: Tissue integrity was checked at the end of the incubation using a standard histological method (hematoxylin-eosin (H&E)). […] At predetermined intervals, 1.0 mL solution was taken out and filtered through an 0.45-μM cellulose filter to separate solubilized collagen from insolubilized matrix. The amount of solubilized collagen was determined after total acid hydrolysis in 6N HCl for 24 h at 100° C. by measuring hydroxyproline (R. Kultan et al., “Collagen Treated with (+)-Catechin Becomes Resistant to the Action of Mammalian Collagenase,” Experientia 37: 221-223 (1981)). The results are expressed as a percentage of the total collagen solubilized.

[3] = tested on: Fischer 344 rats; test: Subcutaneous implantation of treated tissue
Description: Three-week-old Fischer 344 rats were obtained from Harlan Sprague Dawley, Inc. (Indianapolis, Ind.). NIH and University of Southern California IACUC guidelines for the care and use of laboratory animals were observed. […] The samples were retrieved after 3 and 6 weeks postoperation, and samples were processed for H&E and von Kossa staining, the latter to determine the extent of calcification.

[4] = molecular target: T1, bovine tendon (Bos taurus, UniProt P02453+P02465); test: Melting temperature measurement of fixed tendon; conditions: treated 48 hours, n = 3; PA 0.5% in PBS, GA 0.625% in PBS; untreated control 55 ± 0.5; in °C
T1 construct: Fresh bovine tendon; from tissue; host or cells: bovine tendon
Description: as §1

[5] = tested on: human skin fibroblasts; test: Cell proliferation and collagen synthesis on treated pericardium; assay type: cell-based; conditions: discussion summary
Description: Discs, 15 mm in diameter, were punched out from PA-treated bovine pericardium and inserted into the bottom of 24-well plates, After washing and equilibrating with PBS, human skin fibroblasts, 8×10^4/well, third passage (kindly provided by Dr. Warren Garner, University of Southern California) were placed on top of the tissues. After 48 h of culture in 10% FBS/DMEM, the medium was changed to labeling medium ([^3H]thymidine, 10 μCi/mL, 0.5% FBS/DMEM) followed by a 24-h labeling period. Cells proliferation was assayed and collagen synthesis recorded as [^3H]OH-proline incorporation in a culture medium containing 25 μg/mL ascorbic acid, 25 μg/mL β-APN and 25 μCi/mL [^3H]proline in 0.5% FBS/DMEM after labeling for 48 h.

[6] = tested on: NIH 3T3 cells
Description: NIH 3T3 cells were used in these studies. Cells were cultured in 24-well plates at a density of […] in 10% FBS/DMEM overnight. […] Cells were incubated for 72 hours before cell counting and morphological studies.

T1 sequence (P02453 162-1217 limits assumed): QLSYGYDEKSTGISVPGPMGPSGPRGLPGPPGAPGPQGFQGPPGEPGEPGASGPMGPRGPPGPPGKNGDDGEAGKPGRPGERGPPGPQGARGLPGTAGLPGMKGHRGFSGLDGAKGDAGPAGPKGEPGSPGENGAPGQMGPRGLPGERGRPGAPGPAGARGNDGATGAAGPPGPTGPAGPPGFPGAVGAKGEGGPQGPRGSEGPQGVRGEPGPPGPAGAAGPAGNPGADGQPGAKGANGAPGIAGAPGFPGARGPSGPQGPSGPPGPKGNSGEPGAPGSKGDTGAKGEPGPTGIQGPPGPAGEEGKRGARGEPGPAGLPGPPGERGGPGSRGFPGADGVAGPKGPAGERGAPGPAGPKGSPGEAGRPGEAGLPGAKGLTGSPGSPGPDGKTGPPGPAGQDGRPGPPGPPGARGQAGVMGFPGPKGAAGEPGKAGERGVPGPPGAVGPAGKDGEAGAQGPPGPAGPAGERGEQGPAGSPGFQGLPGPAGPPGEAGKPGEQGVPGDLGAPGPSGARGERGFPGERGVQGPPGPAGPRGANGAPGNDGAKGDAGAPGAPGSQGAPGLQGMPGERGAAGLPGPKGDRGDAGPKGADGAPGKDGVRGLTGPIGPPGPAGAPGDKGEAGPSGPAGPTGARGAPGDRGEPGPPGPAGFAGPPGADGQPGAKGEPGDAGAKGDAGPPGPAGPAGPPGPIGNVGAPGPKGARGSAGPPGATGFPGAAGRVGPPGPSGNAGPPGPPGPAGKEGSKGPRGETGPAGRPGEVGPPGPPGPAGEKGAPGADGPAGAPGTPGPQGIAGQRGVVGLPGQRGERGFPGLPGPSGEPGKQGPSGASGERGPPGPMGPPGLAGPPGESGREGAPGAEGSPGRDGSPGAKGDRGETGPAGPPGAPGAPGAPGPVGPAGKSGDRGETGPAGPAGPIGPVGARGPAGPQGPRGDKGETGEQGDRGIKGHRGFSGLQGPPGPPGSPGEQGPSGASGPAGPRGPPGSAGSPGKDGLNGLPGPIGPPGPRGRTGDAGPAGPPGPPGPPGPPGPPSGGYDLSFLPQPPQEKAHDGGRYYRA
T1 sequence (P02465 80-1117 limits assumed): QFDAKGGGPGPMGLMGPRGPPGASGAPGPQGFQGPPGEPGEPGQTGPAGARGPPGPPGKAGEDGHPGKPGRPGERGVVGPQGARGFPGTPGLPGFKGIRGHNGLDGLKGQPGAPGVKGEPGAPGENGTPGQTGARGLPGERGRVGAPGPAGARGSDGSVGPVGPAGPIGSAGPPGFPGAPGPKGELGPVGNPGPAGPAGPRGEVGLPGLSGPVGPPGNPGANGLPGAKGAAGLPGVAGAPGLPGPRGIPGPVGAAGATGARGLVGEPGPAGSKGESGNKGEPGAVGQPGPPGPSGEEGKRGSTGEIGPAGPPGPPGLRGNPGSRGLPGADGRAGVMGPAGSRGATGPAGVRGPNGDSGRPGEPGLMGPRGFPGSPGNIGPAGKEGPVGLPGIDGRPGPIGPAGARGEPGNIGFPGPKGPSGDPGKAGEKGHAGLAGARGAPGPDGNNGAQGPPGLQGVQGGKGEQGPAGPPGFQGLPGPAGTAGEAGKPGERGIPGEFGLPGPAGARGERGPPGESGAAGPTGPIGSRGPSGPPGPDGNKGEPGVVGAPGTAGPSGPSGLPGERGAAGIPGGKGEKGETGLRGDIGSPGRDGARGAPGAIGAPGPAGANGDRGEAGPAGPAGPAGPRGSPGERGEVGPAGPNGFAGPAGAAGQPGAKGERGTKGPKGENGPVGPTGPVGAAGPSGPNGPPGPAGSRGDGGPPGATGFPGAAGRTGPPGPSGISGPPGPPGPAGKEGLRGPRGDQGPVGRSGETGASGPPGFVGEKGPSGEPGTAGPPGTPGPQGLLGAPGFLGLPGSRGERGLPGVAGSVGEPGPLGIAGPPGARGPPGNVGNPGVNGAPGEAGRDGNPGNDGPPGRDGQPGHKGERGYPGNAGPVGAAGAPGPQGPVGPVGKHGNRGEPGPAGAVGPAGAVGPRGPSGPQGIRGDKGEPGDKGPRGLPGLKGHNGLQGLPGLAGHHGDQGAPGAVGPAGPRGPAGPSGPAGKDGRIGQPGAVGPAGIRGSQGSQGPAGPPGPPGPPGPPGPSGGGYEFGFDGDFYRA

O=CCCCC=O [GA, glutaraldehyde]
Melting temperature, Pericardium [1]: 94 ± 1.5 | collagen fibril structure after collagenase digestion [2]: remained intact | degradation of fixed tissue after subcutaneous implantation ([3]; periods ranging from 3 and 6 weeks (discussion)): no apparent degradation | calcification (Von Kossa staining) ([3]; rat, in vivo): dystrophic calcification | calcification after implantation ([3]; rat, in vivo): encourages dystrophic calcification | tissue reaction to implant ([3]; rat, in vivo): lesser inflammatory reaction | implant degradation ([3]; six weeks postoperatively, control completely degraded): still intact | implant integrity ([3]; three weeks postoperatively, control tissues start to disaggregate): retain their integrity | Melting temperature, Tendon [4]: 84 ± 1.0 | rate of collagen synthesis of fibroblasts [5]: inhibits collagen synthesis | cytotoxicity (FIG. 1 legend) [6]: cytotoxicity | cytotoxicity of treated tissue [6]: continues to be cytotoxic | concentration at which cells could not survive ([6]; mouse, 72 h): > 600 ng/mL
